These results are taken from paper PMC11215771 (Journal of Medicinal Chemistry, 2024).

“And” between values parts separate entries of the source, which are not always exact repeats. Equal values may be shown once.

As usually defined, the Kd is the equilibrium constant for the complex coming apart.

The nature of data set [1]: FCS of free Alexa-C3 in HBS in the absence of BACE1. The following applies: 100 nM in HBS, pH 5, no BACE1, mean ± SD.
Data set [2] has as its target T1, hBACE1 D289N (proteolytic inactive mutant) in HEK293T cells (Homo sapiens, UniProt P56817, D289N).
T1 construct: expressed in transfected cells; host or cells: HEK293T
The data set is described as follows: Staining of transfected HEK293T cells, confocal imaging: BACE1 D289N. It counts as cell-based. Here is the method: Next, we explored the performance of the new Alexa-C3 compounds in living cells. Because of the rather hydrophilic properties, we exclusively targeted the cell membrane. To prevent intracellular accumulation, we first performed stainings at 4 °C arresting ATP-dependent endocytosis. […] All of the constructs were tagged at the C-terminus with either EGFP or mCherry to visualize subcellular expression. […] With these experiments, we want to exclude that a lack of staining is caused by an impaired accessibility of the protein by Alexa-C3 compounds. […] We then tested samples with BACE1 expression after fixation of the cells with paraformaldehyde (PFA).
(D) All conjugates were also probed on cells fixed with 4% paraformaldehyde (PFA) for 15 min prior to staining. […] Scale bars represent 5 μm (A–D) and 20 μm (E). […] Samples were excited at 488, 561, and 633 nm, respectively.
HEK293T cells (ATCC accession number CRL-11268) were maintained in Dulbecco's modified Eagle's medium (Sigma-Aldrich D6046) with 1g/L glucose, supplemented with 10% FCS (Merck) and 1% penicillin/streptomycin (PAA). CHO-K1 cells (ATCC #CCL-61) were maintained in modified phenol red free RPMI-1640 medium (Sigma-Aldrich, R7509), supplemented with 2 mM L-glutamine (Sigma-Aldrich, G7513), and 10% FCS (Merck). Cells were cultured at 37 °C in a 5% CO2 atmosphere. The following plasmids were used for transfection with the amount of DNA indicated (per 35 mm Petri dish): hBACE1 (NM_012104.4), 50 ng for single molecule recordings, 200 ng otherwise; hBACE1 fused to EGFP or mCherry, 75 ng; hBACE1 D289N fused to EGFP or mCherry, 75 ng; hBACE1 D289N, 200–400 ng; hBACE2 (NM_012105.3) fused to EGFP, 75 ng; hCathepsinD (HsCD00438327), Harvard PlasmID, 75 ng. Transfection was performed 24 h after plating using jetPEI (Polyplus) according to the manufacturer’s protocol.
For labeling, we plated HEK293T cells onto sterile 18 mm 1.5H borosilicate coverslips (VWR), coated with poly-D-lysine (Sigma). […]

The target in data set [3] is T2, recombinant BACE1 extracellular domain (Homo sapiens, UniProt P56817).
T2 construct: purchased Thermo Fisher Scientific P2985
Description: FRET-based BACE1 inhibition (BACE1-activity FRET) assay. It counts as biochemical. Here is the method:
In addition, we performed a fluorescence resonance energy transfer (FRET)-based BACE1 inhibition assay using the recombinant BACE1 extracellular domain and a BACE1 substrate coupled to a donor fluorophore, which is unquenched […] to the activity of BACE1. […] (Figure 1F).
Protease activity was determined using a FRET-based assay with recombinant BACE1 protein (Thermo Fisher Scientific; P2985). BACE1 inhibition was determined in end-points assays according to the manufacturer’s protocol except using a reduced volume of 12 μL in 384-well plates (Greiner, 788896). […] Fluorescence intensities were quantified with an infinite 200pro reader (Tecan) using top-reading mode. Data points were approximated using a logistic fit to determine half-inhibitory concentrations (pIC50).

Data set [4] addresses BACE-1 (mouse Protein, recombinant) (Mus musculus, UniProt P56818). The data set is described as follows: Nanotemper (Monolith NT.115) binding analysis.
Description: For binding analysis, the Monolith NT.115 (Nanotemper) was used. BACE-1 (mouse Protein, recombinant, life technologies, 50002-M08H-250, LCL10JA2204)) was dissolved in 50 mM HEPES/100 mM NaCl, pH 5 to a concentration of 20 μM. […] Samples were loaded on standard capillaries (Nanotemper, MO-K022) and measured in triplicate at 22 °C, using 1%/60% LED power for Alexa488/Alexa568 and 10% MST power. Fluorescence was plotted against protein concentrations.

Chain of BACE-1 (mouse Protein, recombinant) (P56818 46-457 limits assumed): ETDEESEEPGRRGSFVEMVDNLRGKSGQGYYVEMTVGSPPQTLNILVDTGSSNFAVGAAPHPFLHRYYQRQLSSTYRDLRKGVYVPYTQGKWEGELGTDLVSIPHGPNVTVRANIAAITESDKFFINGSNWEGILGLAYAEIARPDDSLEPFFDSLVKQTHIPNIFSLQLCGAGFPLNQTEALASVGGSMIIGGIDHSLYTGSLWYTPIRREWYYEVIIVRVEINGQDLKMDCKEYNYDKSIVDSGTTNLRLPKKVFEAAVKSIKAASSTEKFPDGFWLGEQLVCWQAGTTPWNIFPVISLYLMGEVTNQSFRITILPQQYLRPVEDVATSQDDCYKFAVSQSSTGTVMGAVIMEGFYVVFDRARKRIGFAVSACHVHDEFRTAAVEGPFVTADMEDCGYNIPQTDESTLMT
T2 sequence (P56817 46-457 limits assumed): as the sequence (P56818 46-457 limits assumed) above, with S6P, I162V, I165L, T180S, A182V, V340I, A393L counted along it
T1 sequence (P56817 46-501 D289N): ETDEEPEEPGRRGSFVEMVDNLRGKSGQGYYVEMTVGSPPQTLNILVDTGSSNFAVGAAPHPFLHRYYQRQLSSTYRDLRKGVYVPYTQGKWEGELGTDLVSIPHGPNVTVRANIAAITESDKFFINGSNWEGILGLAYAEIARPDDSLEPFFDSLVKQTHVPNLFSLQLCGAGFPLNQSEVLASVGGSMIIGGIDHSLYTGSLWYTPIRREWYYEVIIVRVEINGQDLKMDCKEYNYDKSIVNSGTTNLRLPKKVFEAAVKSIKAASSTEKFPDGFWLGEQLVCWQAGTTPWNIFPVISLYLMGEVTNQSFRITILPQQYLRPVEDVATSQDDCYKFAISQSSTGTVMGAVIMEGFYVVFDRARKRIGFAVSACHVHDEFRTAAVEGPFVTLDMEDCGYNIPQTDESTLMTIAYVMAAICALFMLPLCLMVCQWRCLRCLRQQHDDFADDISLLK

For the compound `C[C@@H](NC(=O)c1cc(C(=O)N[C@@H](Cc2ccccc2)[C@H](O)CNC2CC2)cc(N(C)S(=O)(=O)CCCNC(=O)CCCCCC2(C)C(/C=C/C=C/C=C3/N(CCCS(=O)(=O)O)c4ccc(S(=O)(=O)O)cc4C3(C)C)=[N+](CCCS(=O)(=O)[O-])c3ccc(S(=O)(=O)O)cc32)c1)c1ccccc1` (stereo partly drawn), in data set [1], the “diffusion time constant of free probe” value is given as 53 ± 18 μs. Also, the “staining of BACE1 D289N” value in data set [2] is recorded as “not labeled”. In data set [3] (compared with unconjugated C3), the “impairment of affinity to the catalytic center by dye attachment” value amounted to 10 fold. For the same compound, the “pIC50 (negative logarithm of the half-inhibitory concentration)” value in data set [3] (logistic fit, n = 3 for each compound) was 6.53 (95% CI: 6.05–7.05).

With `C[C@@H](NC(=O)c1cc(C(=O)N[C@@H](Cc2ccccc2)[C@H](O)CNC2CC2)cc(N(C)S(=O)(=O)CCCNC(=O)c2ccc(C(=O)O)c(-c3c4ccc(=N)c(S(=O)(=O)O)c-4oc4c(S(=O)(=O)O)c(N)ccc34)c2)c1)c1ccccc1` [2-(6-Amino-3-iminio-4,5-disulfo-3H-xanthen-9-yl)-4-((3-(N-(3-(((2S,3R)-4-(cyclopropylamino)-3-hydroxy-1-phenylbutan-2-yl)carbamoyl)-5-(((R)-1-phenylethyl)carbamoyl)phenyl)-N-methylsulfamoyl)propyl)carbamoyl)benzoate], in data set [1], the “diffusion time constant of free probe” value was 35 ± 3 μs. Also, in data set [2], the “staining of BACE1 D289N” value was “no appreciable fluorescence”. Besides, the “increase of potency of the pIC50 in a cell-free assay vs parent C3” value in data set [3] (compared with unconjugated C3) was 10 fold. In addition, the IC50 in data set [3] (logistic fit, n = 3 for each compound, read-out: pIC50 (negative logarithm of the half-inhibitory concentration) (converted)) was 1.86 nM. Besides, in data set [4], the Kd was 1000 nM. Besides, the “fluorescence reading, single replicates” value is 995.235 and 994.451 and 995.188 in data set [4] (BACE1 concentration 0.305 (unit not given; 0.3–5000 nM), triplicate); 995.092 and 995.228 and 995.025 in data set [4] (BACE1 concentration 0.61, triplicate); 995.123 and 995.217 and 995.055 in data set [4] (BACE1 concentration 1.221, triplicate); 994.777 and 994.504 and 994.766 in data set [4] (BACE1 concentration 2.441, triplicate); 994.407 and 994.774 and 995.083 in data set [4] (BACE1 concentration 4.883, triplicate); 995.092 and 994.263 and 994.945 in data set [4] (BACE1 concentration 9.766, triplicate). In addition, the “fluorescence reading, single replicates” value in data set [4] (BACE1 concentration 19.531, triplicate) was 994.925 and 994.824 and 995.417; in data set [4] (BACE1 concentration 39.062, triplicate), 994.869 and 994.87 and 995.275; in data set [4] (BACE1 concentration 78.125, triplicate), 995.397 and 995.08 and 995.109; in data set [4] (BACE1 concentration 156.25, triplicate), 995.324 and 994.996 and 995.206; in data set [4] (BACE1 concentration 312.5, triplicate), 995.935 and 995.418 and 995.988; in data set [4] (BACE1 concentration 625, triplicate), 996.951 and 996.59 and 996.649. Also, the “fluorescence reading, single replicates” value was 999.327 and 998.59 and 999.026 in data set [4] (BACE1 concentration 1250, triplicate); 1002.784 and 1002.705 and 1002.138 in data set [4] (BACE1 concentration 2500, triplicate); 1000.96 and 1001.179 and 1001.396 in data set [4] (BACE1 concentration 5000, triplicate).
